Results taken from ChEMBL document CHEMBL1153136, “Novel benzoylpiperidine-based stearoyl-CoA desaturase-1 inhibitors: Identification of 6-[4-(2-methylbenzoyl)piperidin-1-yl]pyridazine-3-carboxylic acid (2-hydroxy-2-pyridin-3-ylethyl)amide and its plasma triglyceride-lowering effects in Zucker fatty rats” (Bioorg Med Chem Lett, 2010).
≈ marks a conversion by molar mass, not a printed value. Calls of active or inactive are those of the source. The rule behind the calls is not given here.

Assays:
[1] = target: T1, Acyl-CoA desaturase 1 (Mus musculus, UniProt P13516); test: Inhibition of Scd1 in mouse liver microsomes assessed as conversion of [14C]stearate to [14C]oleate pretreated for 10 mins measured after 60 mins; design: species or system Microsome
T1 sequence (P13516 whole entry): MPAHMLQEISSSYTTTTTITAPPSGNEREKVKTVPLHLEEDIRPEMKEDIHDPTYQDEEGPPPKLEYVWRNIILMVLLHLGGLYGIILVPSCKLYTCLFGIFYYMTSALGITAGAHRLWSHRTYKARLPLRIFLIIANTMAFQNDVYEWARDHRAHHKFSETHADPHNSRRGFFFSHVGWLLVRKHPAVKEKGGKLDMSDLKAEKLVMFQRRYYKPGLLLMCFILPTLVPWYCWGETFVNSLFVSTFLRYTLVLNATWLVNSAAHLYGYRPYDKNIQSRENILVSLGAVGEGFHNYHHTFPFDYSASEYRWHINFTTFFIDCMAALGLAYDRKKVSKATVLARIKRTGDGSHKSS

[2] = target: T2, Stearoyl-CoA desaturase (Homo sapiens, UniProt O00767); test: Inhibition of human Scd1 expressed in HEK293A cells assessed as conversion of [14C]stearate to [14C]oleate pretreated for 30 mins measured after 4 hrs; format: cell-based, HEK293-A
T2 sequence (O00767 whole entry): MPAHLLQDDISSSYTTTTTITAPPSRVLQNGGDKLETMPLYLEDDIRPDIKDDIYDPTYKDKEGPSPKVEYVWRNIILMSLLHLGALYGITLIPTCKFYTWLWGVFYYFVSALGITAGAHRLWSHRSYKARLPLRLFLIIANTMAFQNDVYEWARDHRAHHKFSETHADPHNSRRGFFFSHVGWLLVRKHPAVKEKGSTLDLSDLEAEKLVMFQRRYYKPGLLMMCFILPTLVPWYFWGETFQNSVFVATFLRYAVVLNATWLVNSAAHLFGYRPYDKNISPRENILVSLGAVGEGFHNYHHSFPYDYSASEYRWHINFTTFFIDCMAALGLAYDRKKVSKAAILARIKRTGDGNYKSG

[3] = target: T2, Stearoyl-CoA desaturase; test: Inhibition of Scd1 in human HEK293A cell microsomes assessed as conversion of [14C]stearate to [14C]oleate pretreated for 10 mins measured after 60 mins; design: species or system HEK293-A, Microsome
[4] = target: T3, Stearoyl-CoA desaturase (Homo sapiens) (UniProt O00767); test: Inhibition of human Scd1 assessed as conversion of [14C]stearate to [14C]oleate at 10 uM pretreated for 30 mins measured after 4 hrs
T3 sequence (whole entry): T2 sequence (O00767 whole entry)

[5] = Solubility in aqueous acidic solution at pH 1.2; format: physicochemical
[6] = Solubility in neutral solution at pH 6.8; format: physicochemical
[7] = Metabolic stability in mouse liver S9 fraction assessed as compound remaining after 30 mins; format: ADME, subcellular; conditions: read-out: Stability
[8] = system: Mus musculus; test: Inhibition of Scd1 in po dosed db/db mouse assessed as [14C]oleate to [14C]stearate ratio in liver administered 2 hrs before [14C]stearate challenge measured after 1 hr; format: functional; conditions: read-out: ID50 (the source's name)
[9] = Half life in C57BL/6 mouse at 20 mg/kg, po; format: ADME, organism-based; design: dose 20 mg/kg, route oral; conditions: in vivo
[10] = AUC (0 to 8 hrs) in C57BL/6 mouse at 20 mg/kg, po; format: ADME, organism-based; design: time < 8 hr, dose 20 mg/kg, route oral; conditions: plasma
[11] = Oral bioavailability in C57BL/6 mouse at 20 mg/kg; format: ADME, organism-based; conditions: in vivo
[12] = Half life in C57BL/6 mouse at 5 mg/kg, iv; format: ADME, organism-based; design: dose 5 mg/kg, route intravenous; conditions: in vivo
[13] = Clearance in C57BL/6 mouse at 5 mg/kg, iv; format: ADME, organism-based; design: dose 5 mg/kg, route intravenous; conditions: in vivo
[14] = Volume of distribution in C57BL/6 mouse at 5 mg/kg, iv; format: ADME, organism-based; design: dose 5 mg/kg, route intravenous; conditions: in vivo
[15] = Cmax in C57BL/6 mouse at 20 mg/kg, po; format: ADME, organism-based; design: dose 20 mg/kg, route oral; conditions: in vivo
[16] = system: Rattus norvegicus; test: Reduction of plasma triglyceride level in Zucker fatty rat at 30 mg/kg, po qd for 7 days; format: functional; design: scale not given: the % may be the effect or the level left
[17] = system: Rattus norvegicus; test: Reduction of plasma triglyceride level in po dosed Zucker fatty rat administered qd for 7 days; format: functional, organism-based
[18] = system: Rattus norvegicus; test: Toxicity in Zucker fatty rat assessed as reduction of body weight at 30 mg/kg, po qd for 7 days; format: organism-based; design: dose 30 mg/kg, route oral; scale not given: the % may be the effect or the level left; conditions: in vivo, 168 h
[19] = system: Rattus norvegicus; test: Reduction of plasma glucose level in Zucker fatty rat at 30 mg/kg, po qd for 7 days; format: functional, organism-based; design: dose 30 mg/kg
[20] = system: Rattus norvegicus; test: Reduction of plasma insulin level in Zucker fatty rat at 30 mg/kg, po qd for 7 days; format: functional, organism-based; design: dose 30 mg/kg
[21] = system: Rattus norvegicus; test: Toxicity in Zucker fatty rat assessed as induction of cutaneous abnormalities at 30 mg/kg, po qd for 7 days; format: organism-based; design: dose 30 mg/kg, route oral; conditions: in vivo, 168 h
[22] = system: Rattus norvegicus; test: Toxicity in Zucker fatty rat assessed as induction of narrow eye fissure at 30 mg/kg, po qd for 7 days; format: organism-based; design: dose 30 mg/kg, route oral; conditions: in vivo, 168 h

| SMILES | IC50 [1] [nM] | IC50 [2] [nM] | IC50 [3] [nM] | inhibition [4] [%] | ED50 [8] [mg/kg] | other results |
| --- | --- | --- | --- | --- | --- | --- |
| O=C(NCC(O)c1ccccc1)c1ccc(N2CCC(C(=O)c3ccccc3C(F)(F)F)CC2)nn1 (stereo unspecified) | 2 | 14 | 7 | 9 |  | solubility [5]: 84 µM (≈ 41.9 µg/mL); solubility [6]: < 0.5 µM; remaining at 0.5 h [7]: 47% |
| Cc1ccccc1C(=O)C1CCN(c2ccc(C(=O)NCC(O)c3ccsc3)nn2)CC1 (stereo unspecified) | 3 | 21 | 7 |  | 16 |  |
| O=C(NCC(O)c1ccccc1)c1ccc(N2CCC(C(=O)c3ccccc3)CC2)nn1 (stereo unspecified) | 153 | 108 | 292 | < 5 |  |  |
| Cc1ccccc1C(=O)C1CCN(c2ccc(C(=O)NCC(O)c3ccc(F)cc3)nn2)CC1 (stereo unspecified) | 7 | 22 | 5 |  | 14 |  |
| Cc1ccccc1C(=O)C1CCN(c2ccc(C(=O)NCC(O)c3ccccc3)nn2)CC1 (stereo unspecified) |  |  |  | < 5 | 12 | half-life [9]: 48 min; AUC(0-t) at 8 h [10]: 500 ng·h/mL; bioavailability [11]: 6%; solubility [5]: 88 µM (≈ 39.1 µg/mL); solubility [6]: 3 µM (≈ 1.33 µg/mL); remaining at 0.5 h [7]: 58%; half-life [12]: 36 min; clearance [13]: 42 mL/min/kg; Vd [14]: 0.9 L/kg; Cmax [15]: 300 ng/mL |
| O=C(NCC(O)c1ccccc1)c1ccc(N2CCC(C(=O)c3ccccc3OC(F)(F)F)CC2)nn1 (stereo unspecified) | 5 | 103 | 10 | < 5 |  | solubility [5]: 83 µM (≈ 42.7 µg/mL); solubility [6]: < 0.5 µM; remaining at 0.5 h [7]: 22% |
| O=C(NCCc1ccccc1)c1ccc(N2CCN(C(=O)c3ccccc3C(F)(F)F)CC2)cn1 | 370 |  | 250 |  |  |  |
| COc1ccccc1C(=O)C1CCN(c2ccc(C(=O)NCC(O)c3ccccc3)nn2)CC1 (stereo unspecified) | 52 | 1050 | 311 | < 5 |  |  |
| Cc1ccccc1C(=O)C1CCN(c2ccc(C(=O)NCC(O)c3ccncc3)nn2)CC1 (stereo unspecified) | 34 | 144 | 187 |  |  |  |
| O=C(NCC(O)c1ccccc1)c1ccc(N2CCC(C(=O)c3ccc(F)cc3)CC2)nn1 (stereo unspecified) | 74 | 80 | 118 | 12 |  |  |
| Cc1ccccc1C(=O)C1CCN(c2ccc(C(=O)NCC(O)c3ccccc3F)nn2)CC1 (stereo unspecified) | 9 | 60 | 22 |  | 17 |  |
| Cc1ccccc1C(=O)C1CCN(c2ccc(C(=O)NCC(O)c3cccc(F)c3)nn2)CC1 (stereo unspecified) | 5 | 11 | 6 |  | 14 |  |
| Cc1ccccc1C(=O)C1CCN(c2ccc(C(=O)NCC(O)c3ccccn3)nn2)CC1 (stereo unspecified) | 95 | 390 | 180 |  |  |  |
| Cc1ccccc1C(=O)C1CCN(c2ccc(C(=O)NCC(O)c3cccs3)nn2)CC1 (stereo unspecified) | 7 | 25 | 44 |  | 14 |  |
| O=C(NCCc1ccccc1)c1ccc(N2CCN(C(=O)c3ccccc3C(F)(F)F)CC2)cc1 | 150 |  | 820 |  |  |  |
| O=C(NCCc1ccccc1)c1ccc(N2CCN(C(=O)c3ccccc3C(F)(F)F)CC2)nc1 | 194 |  | 99 |  |  |  |
| Cc1ccccc1C(=O)C1CCN(c2ccc(C(=O)NCC(O)c3cccnc3)nn2)CC1 (stereo unspecified) | 37 | 43 | 28 |  | 3 | half-life [9]: 54 min; AUC(0-t) at 8 h [10]: 7800 ng·h/mL; bioavailability [11]: 68%; Activity [16]: 56%; Activity [17]: Dose-dependent effect; Activity [18]: 15%; Activity [19]: inactive; Activity [20]: inactive; Activity [21]: Non-toxic; Activity [22]: Non-toxic; solubility [5]: > 100 µM; solubility [6]: 29 µM (≈ 12.9 µg/mL); remaining at 0.5 h [7]: 1.1%; half-life [12]: 78 min; clearance [13]: 29 mL/min/kg; Vd [14]: 2.4 L/kg; Cmax [15]: 6300 ng/mL |
